# Laboratory results as given in patent US4418060A, “Therapeutically active complexes of tetracyclines” (priority 1971, dated 1983).
# What was measured:
# [1] = Toxicity data (LD50) of tetracyclines and Tri-tetracyclines in mice; conditions: mouse, in vivo, oral
# [2] = Chloroform/water distribution quotient; type: physicochemical; conditions: pH=7.4
# Description: The solution is filled into ampoules in nitrogen atmosphere.
# [3] = background statement; cited from earlier work
# [4] = cited from earlier work
# [5] = system: tetracycline-resistant Proteus strains; conditions: cited from earlier work
# [6] = cited from earlier work; remark: listed apart in the source
# [7] = per os; cited from earlier work
# [8] = cited from earlier work; remark: listed apart in the source
structure (smiles),measurement,setting,value
"CN(C)[C@@H]1C(=O)C(C(N)=O)=C(O)[C@@]2(O)C(=O)C3=C(O)c4c(O)cccc4[C@@](C)(O)[C@H]3[C@H](O)[C@@H]12 [OTC, 5-hydroxytetracycline]",LD50,[1],2500 mg/kg
same,chloroform/water distribution quotient K,[2],0.008
"CC(=O)C1=C(O)C2(O)C(=O)c3c(c(C)c4ccc(C)c(O)c4c3O)CC2C(N)C1=O (stereo not drawn) [chelocardin, 2-decarboxamido-2-acetyl-4-dedimethylamino-4-epiamino-9-methyl-5a,6-anhydrotetracyline]",water solubility,[3],lower than that of other tetracyclines
same,lipid solubility,[4],moderately lipid soluble
same,effect against tetracycline-resistant Proteus,[5],effective
same,absorption,[6]; peroral,low absorption value
"C[C@H]1c2cccc(O)c2C(O)=C2C(=O)[C@]3(O)C(O)=C(C(N)=O)C(=O)[C@@H](N(C)C)[C@@H]3[C@@H](O)[C@@H]21 [doxycycline, 6-deoxy-5-hydroxytetracycline]",excretion,[6]; in vivo,with faeces as well
same,gastrointestinal disorders,[7],gastrointestinal disorders can be observed
NC(CO)(CO)CO [tris(hydroxymethyl)aminomethane],pK,[8],8.33
